These are literature values, as cited in patent US20070098786A1, “ENTERIC VALPROIC ACID” (Banner Pharmacaps, Inc., priority 2005, published 2007).

In the case of `CCCC(CCC)C(=O)O` [Divalproex sodium], the “solubility in water” value is reported as “soluble in water”.
